This data set has as its system Guinea pig, Hartley-Dunkin.

One molecule from patent US20260263400A1, “COMPOUND COMPOSITION INCLUDING TRANEXAMIC ACID AND TRETINOIN” (Nanjing Indetek Laboratory Co., Ltd., priority 2023, published 2026) can be followed below.

“Also recorded” adds a separate entry of the source.

`O=[N+]([O-])c1ccc(Cl)c([N+](=O)[O-])c1` [1-Chloro-2,4-dinitrobenzene]: for the setting “D15, D31, D38”, the “body weight compared with the negative control group” value is on record as “male animals showed slow weight gain; also recorded: female animals showed no significant difference in body weight”. The “incidence of allergic reaction” value (after challenge) is on record as 100%.
